Structures can show the parent of a compound that is named as a salt. Where two headings read alike, the source gives them in different places.
Tests used:
[1] = target: T1, BRAFV600E full-length (amino acids 2-766) (Homo sapiens, UniProt P15056, V600E); test: B-Raf Accelerated MEK ATPase assay (BRAMA); type: biochemical; conditions: categorized
T1 construct: His6-tagged BRAFV600E full-length (amino acids 2-766); His6; made in house; host or cells: baculovirus expression system (insect cells)
Method in brief: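 Coupled-enzyme readout: ADP generated by MEK-mediated ATP hydrolysis, uncoupled from ERK phosphorylation, is linked to NADH oxidation through pyruvate kinase and lactate dehydrogenase.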

[2] = system: Human colon tumor cells (Colo205); test: Cell growth inhibition assay (CellTiter-Glo), Colo205; type: cell-based
Protocol: Human colon tumor cells (Colo205) were cultured in RPMI (Mediatech 50-020-PB) containing 10% FBS and 1% penicillin-streptomycin.
The next day, compounds were diluted as follow: For 96-well assays, 13.5 μL of compound in DMSO were diluted using nine (9) serial 1:3 dilutions of 4.5 μL in 9 μL of DMSO. Medium (270 μL/well of RPMI with 10% FBS and 1% penicillin-streptomycin) was added to the plates. Aliquots (7 μL) were added to cells in the final assay giving a final DMSO concentration of 0.2%. For 384-well assays, 15 μL of compound in DMSO were diluted using nine (9) serial 1:3 dilutions of 5 μL in 10 μL of DMSO, followed by a further dilution of 5 μL of compound with 95 μL of medium, of which 2 μL were added to cells in the final assay giving a final DMSO concentration of 0.2%. Cells were incubated at 37° C., 5% CO2 for 3 days.
Total ATP was measured (as a surrogate estimate of cell number) using CellTiter-Glo® reagent (Promega G7571). Briefly, plates were removed from the incubator and allowed to equilibrate to room temperature for 30 minutes. CellTiter-Glo® (25 μL or 55 μL for 384-well or 96-well assays, respectively) reagent was added to each well and plates were shaken on an orbital plate shaker for 2 minutes. Plates were incubated without shaking for a further 30 minutes and read on an LJL Analyst GT reader in luminometer mode with an integration time of 0.5 seconds per well. Percent inhibition of cell growth was calculated relative to DMSO vehicle-treated control wells.

[3] = system: Human melanoma cancer cells (SK-MEL-28); test: Cell growth inhibition assay (CellTiter-Glo), SK-MEL-28; type: cell-based
[4] = B-Raf pIC50, Table 1b, later runs, average pIC50 for the one or more runs
[5] = COLO 205, Table 2b, later runs, average for the one or more runs, categorized, read-out: IC50 for Colo205
[6] = SK-MEL-28, Table 3b, later runs, average for the one or more runs, categorized, read-out: IC50 for SK-MEL-28
[7] = B-Raf Activity, Table 1a, highest pIC50 for the one or more runs
[8] = COLO 205, 72 h, Table 2a, 3 days incubation, read-out: Activity in Colo205 Tumor Cells
[9] = SK-MEL-28, 72 h, Table 3a, 3 days incubation, read-out: Activity in SK-MEL-28 Tumor Cells
[10] = Table 1b, later runs, average pIC50 for the one or more runs, read-out: B-Raf pIC50 (converted)

T1 sequence (P15056 2-766 V600E): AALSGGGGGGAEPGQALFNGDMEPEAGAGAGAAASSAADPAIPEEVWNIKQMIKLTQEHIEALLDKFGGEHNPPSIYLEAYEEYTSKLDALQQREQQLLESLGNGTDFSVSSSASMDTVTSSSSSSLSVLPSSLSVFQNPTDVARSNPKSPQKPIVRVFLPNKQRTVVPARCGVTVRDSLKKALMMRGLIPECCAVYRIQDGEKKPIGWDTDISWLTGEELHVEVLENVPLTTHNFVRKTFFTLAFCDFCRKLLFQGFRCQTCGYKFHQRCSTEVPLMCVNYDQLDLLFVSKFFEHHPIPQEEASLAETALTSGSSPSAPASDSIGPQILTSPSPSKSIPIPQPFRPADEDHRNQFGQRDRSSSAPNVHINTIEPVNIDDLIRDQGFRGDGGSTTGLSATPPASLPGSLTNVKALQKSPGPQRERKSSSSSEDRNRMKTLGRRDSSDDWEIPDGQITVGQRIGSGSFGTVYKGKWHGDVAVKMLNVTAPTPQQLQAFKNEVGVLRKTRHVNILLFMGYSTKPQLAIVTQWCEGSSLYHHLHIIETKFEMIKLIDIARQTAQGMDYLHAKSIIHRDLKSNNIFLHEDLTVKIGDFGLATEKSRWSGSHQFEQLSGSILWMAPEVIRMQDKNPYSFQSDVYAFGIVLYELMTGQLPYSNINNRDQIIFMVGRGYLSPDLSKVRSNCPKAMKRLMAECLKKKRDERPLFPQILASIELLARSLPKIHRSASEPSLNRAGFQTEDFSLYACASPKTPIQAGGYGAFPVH

Row | SMILES | IC50 [1, 4] | IC50 [2, 5] | IC50 [3, 6] | IC50 [1, 7] | IC50 [2, 8] | IC50 [3, 9] | IC50 [1, 10]
1 | Cn1nccc1S(=O)(=O)Nc1cccc(-c2nc(C(C)(C)C)sc2-c2ccnc(N)n2)c1F [Example 282, N-{3-[5-(2-amino-4-pyrimidinyl)-2-(1,1-dimethylethyl)-1,3-thiazol-4-yl]-2-fluorophenyl}-1-methyl-1H-pyrazole-5-sulfonamide hydrochloride] | 31.6 to 1000 nM | 100 to 1000 nM | 1000 to 10000 nM | – | – | – | –
2 | O=S(=O)(Nc1cccc(-c2nc(N3CCOCC3)sc2-c2ccnc(NCCO)n2)c1F)c1cc(F)ccc1F [Example 208] | ≤ 3.16 nM | < 100 nM | < 100 nM | < 100 nM | < 100 nM | < 100 nM | –
3 | CC(C)c1nc(-c2cccc(NS(=O)(=O)C3CC3)c2)c(-c2ccnc(NCCS(C)(=O)=O)n2)s1 [Example 52, N-{3-[2-(1-Methylethyl)-5-(2-{[2-(methylsulfonyl)ethyl]amino}-4-pyrimidinyl)-1,3-thiazol-4-yl]phenyl}cyclopropanesulfonamide] | 31.6 to 1000 nM | 100 to 1000 nM | 100 to 1000 nM | 100 to 1000 nM | 100 to 1000 nM | 100 to 1000 nM | –
4 | Cc1nccc(-c2sc(N3CCOCC3)nc2-c2cccc(NS(=O)(=O)c3cc(F)ccc3F)c2Cl)n1 [Example 28, N-{2-Chloro-3-[5-(2-methyl-4-pyrimidinyl)-2-(4-morpholinyl)-1,3-thiazol-4-yl]phenyl}-2,5-difluorobenzenesulfonamide] | – | < 100 nM | < 100 nM | < 100 nM | < 100 nM | < 100 nM | 3.16 to 31.6 nM
5 | CC(C)c1nc(-c2ccc(F)c(NS(=O)(=O)c3cc(F)ccc3F)c2)c(-c2ccnc(NC3CCOCC3)n2)s1 [Example 76, 2,5-Difluoro-N-(2-fluoro-5-{2-(1-methylethyl)-5-[2-(tetrahydro-2H-pyran-4-ylamino)-4-pyrimidinyl]-1,3-thiazol-4-yl}phenyl)benzenesulfonamide] | – | 100 to 1000 nM | 100 to 1000 nM | < 100 nM | 100 to 1000 nM | 100 to 1000 nM | 3.16 to 31.6 nM
6 | CCOC(=O)CCc1nccc(-c2sc(C(C)(C)C)nc2-c2cccc(NS(=O)(=O)c3c(F)cccc3F)c2F)n1 [Example 226, ethyl 3-{4-[4-(3-{[(2,6-difluorophenyl)sulfonyl]amino}-2-fluorophenyl)-2-(1,1-dimethylethyl)-1,3-thiazol-5-yl]-2-pyrimidinyl}propanoate] | ≤ 3.16 nM | < 100 nM | < 100 nM | – | – | – | –
7 | CC(C)(C)c1nc(-c2cccc(NS(=O)(=O)c3ccoc3)c2F)c(-c2ccnc(N)n2)s1 [Example 234, N-{3-[5-(2-amino-4-pyrimidinyl)-2-(1,1-dimethylethyl)-1,3-thiazol-4-yl]-2-fluorophenyl}-3-furansulfonamide] | ≤ 3.16 nM | < 100 nM | < 100 nM | – | – | – | –
8 | Nc1nccc(-c2sc(C3CCOCC3)nc2-c2cccc(NS(=O)(=O)c3cc(F)ccc3F)c2Cl)n1 [Example 242, N-{3-[5-(2-amino-4-pyrimidinyl)-2-(tetrahydro-2H-pyran-4-yl)-1,3-thiazol-4-yl]-2-chlorophenyl}-2,5-difluorobenzenesulfonamide] | ≤ 3.16 nM | < 100 nM | < 100 nM | – | – | – | –
9 | CC(C)c1nc(-c2ccc(F)c(NS(=O)(=O)c3c(F)cccc3F)c2)c(-c2ccnc(NCCCN3CCCC3=O)n2)s1 [Example 95, 2,6-Difluoro-N-{2-fluoro-5-[2-(1-methylethyl)-5-(2-{[3-(2-oxo-1-pyrrolidinyl)propyl]amino}-4-pyrimidinyl)-1,3-thiazol-4-yl]phenyl}benzenesulfonamide] | 31.6 to 1000 nM | 100 to 1000 nM | 100 to 1000 nM | < 100 nM | 100 to 1000 nM | 100 to 1000 nM | –
10 | CS(=O)(=O)CCNc1nccc(-c2sc(N3CCCC3)nc2-c2cccc(NS(=O)(=O)c3c(F)cccc3F)c2)n1 [Example 32, 2,6-Difluoro-N-{3-[5-(2-{[2-(methylsulfonyl)ethyl]amino}-4-pyrimidinyl)-2-(1-pyrrolidinyl)-1,3-thiazol-4-yl]phenyl}benzenesulfonamide] | ≤ 3.16 nM | < 100 nM | < 100 nM | < 100 nM | < 100 nM | < 100 nM | –
11 | Nc1nccc(-c2sc(N3CCOCC3)nc2-c2c(F)ccc(NS(=O)(=O)c3c(F)cccc3F)c2F)n1 [Example 106, N-{3-[5-(2-Amino-4-pyrimidinyl)-2-(4-morpholinyl)-1,3-thiazol-4-yl]-2,4-difluorophenyl}-2,6-difluorobenzenesulfonamide] | – | 100 to 1000 nM | 100 to 1000 nM | < 100 nM | 100 to 1000 nM | 100 to 1000 nM | 3.16 to 31.6 nM
12 | CC(C)(C)c1nc(-c2cccc(NS(=O)(=O)c3cccc(F)c3)c2F)c(-c2ccnc(N)n2)s1 [Example 218, N-{3-[5-(2-amino-4-pyrimidinyl)-2-(1,1-dimethylethyl)-1,3-thiazol-4-yl]-2-fluorophenyl}-3-fluorobenzenesulfonamide] | ≤ 3.16 nM | < 100 nM | < 100 nM | – | – | – | –
13 | CC(C)c1nc(-c2ccc(F)c(NS(=O)(=O)c3c(F)cccc3F)c2)c(-c2ccnc(NCC(F)F)n2)s1 [Example 93, N-{5-[5-{2-[(2,2-Difluoroethyl)amino]-4-pyrimidinyl}-2-(1-methylethyl)-1,3-thiazol-4-yl]-2-fluorophenyl}-2,6-difluorobenzenesulfonamide] | – | 100 to 1000 nM | 100 to 1000 nM | < 100 nM | 100 to 1000 nM | 100 to 1000 nM | 3.16 to 31.6 nM
14 | CC(C)c1nc(-c2ccc(F)c(NS(=O)(=O)c3cc(F)ccc3F)c2)c(-c2ccnc(NCCN3CCCCC3)n2)s1 [Example 131] | 31.6 to 1000 nM | – | 1000 to 10000 nM | < 100 nM | > 1000 nM | > 1000 nM | –
15 | CC(C)(C)c1nc(-c2cccc(NS(=O)(=O)c3cccs3)c2F)c(-c2ccnc(N)n2)s1 [Example 232, N-{3-[5-(2-amino-4-pyrimidinyl)-2-(1,1-dimethylethyl)-1,3-thiazol-4-yl]-2-fluorophenyl}-2-thiophenesulfonamide] | ≤ 3.16 nM | < 100 nM | < 100 nM | – | – | – | –
16 | CC(C)c1nc(-c2cccc(NS(=O)(=O)N3CCOCC3)c2)c(-c2ccnc(NCCS(C)(=O)=O)n2)s1 [Example 37, N-{3-[2-(1-Methylethyl)-5-(2-{[2-(methylsulfonyl)ethyl]amino}-4-pyrimidinyl)-1,3-thiazol-4-yl]phenyl}-4-morpholinesulfonamide trifluoroacetic acid salt] | 31.6 to 1000 nM | 100 to 1000 nM | 100 to 1000 nM | 100 to 1000 nM | 100 to 1000 nM | 100 to 1000 nM | –
17 | CC(C)CNc1nccc(-c2sc(C(C)(C)C)nc2-c2cccc(NS(=O)(=O)c3cc(F)ccc3F)c2Cl)n1 [Example 23, N-[2-Chloro-3-(2-(1,1-dimethylethyl)-5-{2-[(2-methylpropyl)amino]-4-pyrimidinyl}-1,3-thiazol-4-yl)phenyl]-2,5-difluorobenzenesulfonamide] | – | 100 to 1000 nM | 100 to 1000 nM | < 100 nM | 100 to 1000 nM | 100 to 1000 nM | 3.16 to 31.6 nM
18 | CS(=O)(=O)N1CCN(c2nc(-c3cccc(NS(=O)(=O)c4cc(F)ccc4F)c3F)c(-c3ccnc(N)n3)s2)CC1 [Example 99, N-(3-{5-(2-Amino-4-pyrimidinyl)-2-[4-(methylsulfonyl)-1-piperazinyl]-1,3-thiazol-4-yl}-2-fluorophenyl)-2,5-difluorobenzenesulfonamide] | ≤ 3.16 nM | 100 to 1000 nM | 100 to 1000 nM | < 100 nM | 100 to 1000 nM | 100 to 1000 nM | –
19 | CC(C)(C)c1nc(-c2cccc(NS(=O)(=O)c3ccoc3)c2F)c(-c2ccncn2)s1 [Example 256, N-{3-[2-(1,1-dimethylethyl)-5-(4-pyrimidinyl)-1,3-thiazol-4-yl]-2-fluorophenyl}-3-furansulfonamide] | ≤ 3.16 nM | < 100 nM | < 100 nM | – | – | – | –
20 | CC(C)CNc1nccc(-c2sc(N3CCOCC3)nc2-c2cccc(NS(=O)(=O)c3ccco3)c2F)n1 [Example 43, N-{2-fluoro-3-[5-{2-[(2-methylpropyl)amino]-4-pyrimidinyl}-2-(4-morpholinyl)-1,3-thiazol-4-yl]phenyl}-2-furansulfonamide] | ≤ 3.16 nM | 100 to 1000 nM | 100 to 1000 nM | < 100 nM | 100 to 1000 nM | 100 to 1000 nM | –
